Patent US6841366B1, “Biotin biosynthesis in bacillus subtilis” (DSM IP Assets B.V., priority 1993, dated 2005)

Columns and labels:
[1] = test system: B. subtilis PY79 and azelaic acid resistant mutants; assay: Growth inhibition by azelaic acid, minimal agar; assay type: cell-based
Text: (§1) Azelaic acid, a straight chain C9 dicarboxylic acid, is a homolog of pimelic acid and is thought to be an intermediate in the conversion of oleic acid to pimelic acid (see Ohsugi and Inoue (1981) Agric. Biol. Chem. 45: 2355-2356, hereby incorporated by reference).
Seven spontaneous mutants that outgrew the background of PY79 on 2 g/l Azelaic acid were isolated. The resistance to azelaic acid appeared to be a stable trait in all but one case (see below). The seven mutants were provisionally named PA1-PA7 (PY79 Azelaic acid resistant). PA1 through PA7 were grown in test tubes in VY medium, and biotin production was assayed using E. coli indicator strains (Table 15). The mutants fell into two classes, those that yielded more biotin than PY79 (PA5, PA6) and those that were similar to PY79 (PA1, 2, 3, and 7). PA4 appeared to be either unstable or not a true mutant and was dropped from further study. Applicants also noticed that the mutants fell into two classes with respect to colony size on minimal agar with 2 g/l azelaic acid, and that these two classes corresponded to the two classes of biotin producers (Table 11). The mutants with the most biotin in the supernatant (PA5 and PA6) gave small colonies, while the biotin non-secreters, PA1, 2, 3, and 7, gave large colonies. PA1 and PA3 secreted a compound that cross-fed PY79 (i.e., reversed the azelaic acid inhibition of PY79) on minimal plates containing 2 g/l azelaic acid.

PY79 bioI::cat = assay: Growth of bioI::cat mutants on biotin-free medium with supplements; assay type: cell-based, B. subtilis
E. coli strain MM294 = assay: Azelaic acid sensitivity of wild-type E. coli; assay type: cell-based
Text: (§2) Therefore, Applicants concluded that azelaic acid acts at the level of pimelyl CoA synthetase (bioW), either as a competitive inhibitor of pimelic acid, or by incorporation into a biotin homolog or other toxic intermediate.

[2] = test system: E. coli strain RY604(ΔbioH) containing pBIO403; assay: Growth of E. coli carrying only B. subtilis bioW, with pimelic acid and azelaic acid; assay type: cell-based
Experimental: A plasmid (pBIO403) containing only the B. subtilis bioW gene and its promoter cloned into pCL1921 (Lerner and Inouye, 1990, supra), complemented both E. coli ΔbioH and bioC mutants, if and only if pimelic acid was added to the medium at about 30 mg/l. This experiment confirmed that bioW encodes a pimelyl-CoA synthetase that can bypass bioH and bioC in E. coli.
as §2

B. subtilis = assay: Stimulation of biotin vitamer production by pimelic acid; assay type: cell-based; conditions: 1 g/l
Experimental: In all fermentations, 1 g/l pimelic acid was added to both the initial batch and feed solutions. BI282, BI278 and BI276 were the most optimized for biotin and biotin vitamer production.
Addition of pimelate to the fermentation medium results in an increased level of a biotin vitamer which is probably KAPA (FIG. 15, lane D). This was shown by an increase in the KAPA/BSO spot compared to similar fermentations without pimelate (FIG. 15, lane B).
as §1

| SMILES | Growth inhibition of wild-type B. subtilis ([1]; azelaic acid at concentrations higher than 30 mg/l) | Growth inhibition of PY79 ([1]; minimal agar, azelaic acid 2 g/l (about 10^−2 M), did not kill or completely prevent growth) | Colony size on 2 g/l azelaic acid ([1]; strain PA1, minimal agar) | Colony size on 2 g/l azelaic acid ([1]; strain PA2, minimal agar) | Colony size on 2 g/l azelaic acid ([1]; strain PA3, minimal agar) | Colony size on 2 g/l azelaic acid ([1]; strain PA4, minimal agar) | Colony size on 2 g/l azelaic acid ([1]; strain PA5, minimal agar) | Colony size on 2 g/l azelaic acid ([1]; strain PA6, minimal agar) | Colony size on 2 g/l azelaic acid ([1]; strain PA7, minimal agar) | Colony size on 2 g/l azelaic acid ([1]; strain PY79, minimal agar) | Growth inhibition of PY79 bioI::cat9 (PY79 bioI::cat; 30 mg/l) | Substitution for pimelic acid in supporting growth of PY79 bioI::cat9 (PY79 bioI::cat; 30 mg/l) | Sensitivity of wild-type E. coli MM294 to azelaic acid (E. coli strain MM294) | Sensitivity of RY604/pBIO403 to azelaic acid ([2]; grown in excess pimelic acid (80 mg/l)) | Restoration of growth of PY79 bioI::cat9 bradytroph (PY79 bioI::cat; 30 mg/l) | Growth of PY79 bioI::cat strains (either cat orientation) on biotin-free medium (PY79 bioI::cat; pimelic acid 33 μg/ml) | Satisfaction of the biotin requirement of RY604(ΔbioH)/pBIO403 ([2]; 30 mg/l) | Effect on biotin vitamer production in B. subtilis (B. subtilis) |
| --- | --- | --- | --- | --- | --- | --- | --- | --- | --- | --- | --- | --- | --- | --- | --- | --- | --- | --- |
| O=C(O)CCCCCCCC(=O)O [azelaic acid, Azelaic acid] | inhibits the growth | severely inhibited growth | large | large | large | tiny | small | small | large | tiny | severely inhibited the growth | does not substitute for pimelic acid | relatively resistant | sensitive to inhibition |  |  |  |  |
| O=C(O)CCCCCC(=O)O [pimelic acid] |  |  |  |  |  |  |  |  |  |  |  |  |  |  | restore wild-type growth | grew to wild-type levels | can satisfy the biotin requirement | stimulate biotin vitamer production |
